Results as given in ChEMBL document CHEMBL3297657, “Synthesis and antitumor activities of novel α-aminophosphonate derivatives containing an alizarin moiety” (Eur J Med Chem, 2014).

Tests used:
CNE = assay: Cytotoxicity against human CNE cells after 48 hrs by MTT assay; assay type: functional, cell-based
MGC-803 = assay: Cytotoxicity against human MGC803 cells after 48 hrs by MTT assay; assay type: functional, cell-based; details: MGC-803, 48 h
NCI-H460 = assay: Cytotoxicity against human NCI-H460 cells after 48 hrs by MTT assay; assay type: functional, cell-based; details: NCI-H460, 48 h
KB = assay: Cytotoxicity against human KB cells after 48 hrs by MTT assay; assay type: functional, cell-based
HUVEC = assay: Cytotoxicity against HUVEC after 48 hrs by MTT assay; assay type: cell-based; details: Homo sapiens
HeLa = assay: cells; details: Homo sapiens, 48 h
Description: Cytotoxicity against human HeLa cells after 48 hrs by MTT assay

HCT-116 = assay: cells; details: Homo sapiens, HCT-116, 48 h
Description: Cytotoxicity against human HCT116 cells after 48 hrs by MTT assay

A549 = assay: cells; details: Homo sapiens, A549, 48 h
Description: Cytotoxicity against human A549 cells after 48 hrs by MTT assay

HepG2 = assay: cells; details: Homo sapiens, HepG2, 48 h
Description: Cytotoxicity against human HepG2 cells after 48 hrs by MTT assay

Compound | IC50 (CNE) [µM] | IC50 (MGC-803) [µM] | IC50 (NCI-H460) [µM] | IC50 (KB) [µM] | IC50 (HUVEC) [µM] | IC50 (HeLa) [µM] | IC50 (HCT-116) [µM] | IC50 (A549) [µM] | IC50 (HepG2) [µM]
CCOP(=O)(OCC)C(NC(=O)C(C)Oc1ccc2c(c1O)C(=O)c1ccccc1C2=O)c1ccc2ccccc2c1 (stereo unspecified) | 49.4 | 5.6 | 14.1 | 1.21 | 38.9 | 23.6 | 23 | 25.2 | 38.9
O=c1[nH]cc(F)c(=O)[nH]1 [FLUOROURACIL] | 45.1 | 46.9 | 45.1 | 1.23 | 24.1 | 23.3 | 10.1 |  | 38.3
CCOP(=O)(OCC)C(NC(=O)C(C)Oc1ccc2c(c1O)C(=O)c1ccccc1C2=O)c1ccc(OC)cc1 (stereo unspecified) | > 50 | 22.5 | 14.3 | 1 | > 50 | 14.7 | 13.7 | 33.7 | > 50
CCOP(=O)(OCC)C(NC(=O)C(C)Oc1ccc2c(c1O)C(=O)c1ccccc1C2=O)c1cccc(Cl)c1 (stereo unspecified) | > 50 | 29 | 9.1 | 0.22 | 70.8 | 12.9 | 36.3 | 18.7 | 70.8
CCOP(=O)(OCC)C(NC(=O)C(C)Oc1ccc2c(c1O)C(=O)c1ccccc1C2=O)c1cccc(Br)c1 (stereo unspecified) | > 50 | 27.5 | 10.7 | 2.29 | 23.6 | 11 | 15.7 | 32.8 | 23.6
CCOP(=O)(OCC)C(NC(=O)C(C)Oc1ccc2c(c1O)C(=O)c1ccccc1C2=O)c1ccc(Br)cc1 (stereo unspecified) | 22.2 | 18.5 | 7.83 | 0.26 | 22.2 | 10.9 | 12.4 | 30.3 | 22.2
CCOP(=O)(OCC)C(NC(=O)COc1ccc2c(c1O)C(=O)c1ccccc1C2=O)c1ccccc1 (stereo unspecified) |  | 13 | 11.9 | 6.7 | > 50 | 18.5 | 17.4 | 12.1 | 41.4
O=C1c2ccccc2C(=O)c2c1ccc(O)c2O [ATHRAQUINONES A] | > 100 | 39.4 | > 50 | 15.7 | > 50 | > 100 | > 50 | > 50 | > 50
CCOP(=O)(OCC)C(NC(=O)C(C)Oc1ccc2c(c1O)C(=O)c1ccccc1C2=O)c1ccc(C)cc1 (stereo unspecified) | > 50 | 27.9 | 28.9 | 0.99 | > 50 | > 50 | 37 | 38 | > 50
CCOP(=O)(OCC)C(NC(=O)COc1ccc2c(c1O)C(=O)c1ccccc1C2=O)c1ccccc1F (stereo unspecified) |  | 27.1 | 12.9 | 2.6 | > 50 | > 50 | 14.7 | 37.8 | > 50
CCOP(=O)(OCC)C(NC(=O)COc1ccc2c(c1O)C(=O)c1ccccc1C2=O)c1ccc(OC)cc1 (stereo unspecified) |  | 36.1 | 20 | 7.32 | > 50 | > 50 | 44.9 | 42.2 | > 50
CCOP(=O)(OCC)C(NC(=O)COc1ccc2c(c1O)C(=O)c1ccccc1C2=O)c1ccc(Br)cc1 (stereo unspecified) |  | 35.2 | 46.2 | 3.26 | > 50 | > 50 | 45.8 | 45.1 | > 50
CCOP(=O)(OCC)C(NC(=O)COc1ccc2c(c1O)C(=O)c1ccccc1C2=O)c1ccccc1Br (stereo unspecified) |  | 18.7 | 12 | 6.64 | > 50 | > 50 | 17.2 | 35.8 | > 50
